Source: US7713953B2, “2-methylene-(22E)-25-(1-methylene-hexyl)-26,27-cyclo-22-dehydro-19-nor-vitamin D analogs” (Wisconsin Alumni Research Foundation, priority 2008, dated 2010)
pEC50, pKi: −log10 of the molar value.

Columns and labels:
[1] = test system: HL-60 cells; experiment: HL-60 cell differentiation (nitro blue tetrazolium reduction); type: cell-based, human; details: for pEC50: FIG. 2
Experimental: The study drugs were dissolved in ethanol and the concentrations determined using UV spectrophotometry. Serial dilutions were prepared so that a range of drug concentrations could be tested without changing the final concentration of ethanol (≦0.2%) present in the cell cultures.
Human promyelocytic leukemia (HL60) cells were grown in RPMI-1640 medium containing 10% fetal bovine serum. The cells were incubated at 37° C. in the presence of 5% CO2.
HL60 cells were plated at 1.2×10^5 cells/ml. Eighteen hours after plating, cells in duplicate were treated with drug. Four days later, the cells were harvested and a nitro blue tetrazolium reduction assay was performed (Collins et al., 1979; J. Exp. Med. 149:969-974). The percentage of differentiated cells was determined by counting a total of 200 cells and recording the number that contained intracellular black-blue formazan deposits. Verification of differentiation to monocytic cells was determined by measuring phagocytic activity (data not shown).

[2] = test system: vitamin D-deficient rats; experiment: Intestinal calcium transport (everted gut sac method); type: in vivo, rat
Experimental: (§1) Male, weanling Sprague-Dawley rats were placed on Diet 11 (0.47% Ca) diet+AEK oil for one week followed by Diet 11 (0.02% Ca)+AEK oil for 3 weeks. The rats were then switched to a diet containing 0.47% Ca for one week followed by two weeks on a diet containing 0.02% Ca. Dose administration began during the last week on 0.02% calcium diet. Four consecutive ip doses were given approximately 24 hours apart. Twenty-four hours after the last dose, blood was collected from the severed neck and the concentration of serum calcium determined as a measure of bone calcium mobilization. The first 10 cm of the intestine was also collected for intestinal calcium transport analysis using the everted gut sac method.

[3] = test system: vitamin D-deficient rats; experiment: Bone calcium mobilization (serum calcium); type: in vivo, rat; details: for bone calcium mobilization activity (serum calcium): rats on low calcium diet (0.02%), 4 consecutive daily ip doses
Experimental: as §1

[4] = test system: 24-hydroxylase (24 Ohase) gene promoter in ROS 17/2.8 (bone) cells; experiment: In vitro transcription assay (24-hydroxylase promoter luciferase reporter); type: cell-based
Experimental: Transcription activity was measured in ROS 17/2.8 (bone) cells that were stably transfected with a 24-hydroxylase (24 Ohase) gene promoter upstream of a luciferase reporter gene (Arbour et al., 1998). Cells were given a range of doses. Sixteen hours after dosing the cells were harvested and luciferase activities were measured using a luminometer.
RLU=relative luciferase units.

[5] = molecular target: T1, full-length recombinant rat vitamin D receptor (Rattus norvegicus, UniProt P13053); experiment: Vitamin D receptor competitive binding with [3H]-1,25(OH)2D3; details: full-length recombinant rat VDR; FIG. 1; read-out: Ki, competition with [3H]-1,25(OH)2D3 for binding to vitamin D receptor
T1 construct: Full-length recombinant rat receptor was expressed in E. coli BL21 (DE3) Codon Plus RIL cells; histidine tag (C); made in house; host or cells: E. coli BL21 (DE3) Codon Plus RIL
T1 sequence (P13053 1-423): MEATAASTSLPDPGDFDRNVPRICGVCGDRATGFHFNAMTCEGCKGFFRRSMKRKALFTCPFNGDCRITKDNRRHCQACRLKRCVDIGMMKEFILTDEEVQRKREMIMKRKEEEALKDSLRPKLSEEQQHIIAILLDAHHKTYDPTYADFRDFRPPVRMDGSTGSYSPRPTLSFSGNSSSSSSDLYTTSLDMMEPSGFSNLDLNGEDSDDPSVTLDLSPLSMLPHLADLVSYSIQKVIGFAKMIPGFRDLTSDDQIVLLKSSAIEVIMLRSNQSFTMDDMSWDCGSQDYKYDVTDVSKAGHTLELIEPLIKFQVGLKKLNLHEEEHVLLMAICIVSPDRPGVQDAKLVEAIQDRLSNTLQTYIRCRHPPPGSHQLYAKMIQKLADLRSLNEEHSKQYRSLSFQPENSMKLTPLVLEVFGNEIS
Experimental: Full-length recombinant rat receptor was expressed in E. coli BL21 (DE3) Codon Plus RIL cells and purified to homogeneity using two different column chromatography systems. The first system was a nickel affinity resin that utilizes the C-terminal histidine tag on this protein. The protein that was eluted from this resin was further purified using ion exchange chromatography (S-Sepharose Fast Flow). Aliquots of the purified protein were quick frozen in liquid nitrogen and stored at −80° C. until use. For use in binding assays, the protein was diluted in TEDK50 (50 mM Tris, 1.5 mM EDTA, pH7.4, 5 mM DTT, 150 mM KCl) with 0.1% Chaps detergent. The receptor protein and ligand concentration were optimized such that no more than 20% of the added radiolabeled ligand was bound to the receptor.
Radiolabeled and unlabeled ligands were added to 100 mcl of the diluted protein at a final ethanol concentration of ≦10%, mixed and incubated overnight on ice to reach binding equilibrium. The following day, 100 mcl of hydroxylapatite slurry (50%) was added to each tube and mixed at 10-minute intervals for 30 minutes. The hydroxylapaptite was collected by centrifugation and then washed three times with Tris-EDTA buffer (50 mM Tris, 1.5 mM EDTA, pH 7.4) containing 0.5% Titron X-100. […] Total binding was determined from the tubes containing only radiolabeled ligand.

[6] = times greater than the native hormone

pEC50 ([1]; Homo sapiens, HL-60) | pEC50 ([4]; 24-hydroxylase gene, FIG. 3, read-out: EC50, transcriptional activity in bone cells) | pKi [5] | SMILES | pEC50 [1] | intestinal calcium transport at 780 pmol/day [2] | bone calcium mobilization activity (serum calcium) ([3]; FIG. 4A) | HL-60 cell differentiation activity relative to 1α,25-dihydroxyvitamin D3 [1, 6] | transcriptional activity in bone cells relative to 1α,25-dihydroxyvitamin D3 [4, 6] | intestinal calcium transport activity at 260 pmol/day ([2]; 260 pmol/day for 4 consecutive days, FIG. 5A) | dose at which any significant effect on intestinal calcium transport was seen ([2]; FIG. 5A) | intestinal calcium transport activity ([2]; FIG. 5A, overall) | intestinal calcium transport activity compared with native hormone ([2]; FIG. 5B, second group of animals) | bone calcium mobilization at 7020 pmol/day compared with native hormone at 780 pmol/day ([3]; 7020 pmol/day for 4 consecutive days, FIG. 4B) | dose giving the same mobilization of bone calcium as 1,25(OH)2D3 at 32 pmol/day ([3]; 4 consecutive days, FIG. 4A) | dose at which any substantial effect on bone calcium mobilization was seen ([3]; FIG. 4A, first group of animals) | dose at which any substantial effect on bone calcium mobilization was seen ([3]; FIG. 4B, second group of animals)
– | – | – | C=C1/C(=C\C=C2/CCC[C@]3(C)[C@@H]([C@H](C)CCCC(C)(C)O)CC[C@@H]23)C[C@@H](O)C[C@@H]1O [1,25(OH)2D3, 1α,25-dihydroxyvitamin D3, reference compound] | 8.52 | significant increase | increased serum calcium levels at all dosages | – | – | – | – | – | – | – | – | – | –
9.10 | 10.10 | 9.52 | C=C1[C@H](O)CC(=C/C=C2\CCC[C@]3(C)[C@@H]([C@H](C)/C=C/[C@@H](O)C4(C(=C)CCCCC)CC4)CC[C@@H]23)C[C@H]1O [MM-49, 2-methylene-(22E)-25-(1-methylene-hexyl)-26,27-cyclo-22-dehydro-19-nor-1α,24(R)-dihydroxyvitamin D3] | – | promotes intestinal calcium transport | relatively low, or little, activity in mobilizing calcium from bone | ~5 times | 5 times | did not result in any activity | 780 pmol/day | relatively low, or little, intestinal calcium transport activity | significantly less than 1,25(OH)3D3 | did not result in the same mobilization of bone calcium | 260 pmol/day | 780 pmol/day | 35,100 pmol/day
